Like-named read-outs stand apart in the source and are kept apart here.
Columns and labels:
Assay type in all cases: cell-based
[1] = tested on: normal human peripheral blood mononuclear cells; experiment: Cytotoxicity on normal human peripheral blood mononuclear cells (trypan blue dye exclusion); details: doses of Table 1
Experimental: (§1) Preactivated MC 540 is abbreviated as pMC 540.
(§2) Merocil and Merodantoin were dissolved in cremophor EL whereas pMC 540 was prepared in 10% aqueous ethanol. […] Fresh human peripheral mononucleas cells (1×10^6 cells/ml) were treated with indicated concentration of compounds. After overnight incubation at 37° C., cell viability was determined by trypan blue dye exclusion method.

[2] = as above; details: human, peripheral blood mononuclear cells, overnight, 37° C., read-out: % cell kill (mean ± S.E.M.)
Experimental: as §1, §2

[3] = tested on: U266B1 (myeloma); experiment: Inhibition of cell proliferation, U266B1 (MTT assay); details: 24 hr.
Experimental: Preactivated MC 540 is abbreviated as pMC 540. […] 52: 831-38 (1990); and T. Mosmann, J. Immulog. Methods 65: 55-63 (1983).
Each cell type (1×10^6 cells/ml; in triplicate) was treated with indicated concentrations of merocil or merodantoin. […] The cytotoxicity in vehicle only (cremophor EL) controls was not detectable at highest dose tested.

## CCCCN1C(=O)C(=O)N(CCCC)C1=S [Merodantoin, N,N'-Dibutyl-2-thio-4,5-imidazolindion]
[1]
  toxicity to normal human peripheral blood mononuclear cells: relatively non-toxic
[2]; 1.56 μg/ml
  cytotoxicity: 4.33 ± 1.07%
[2]; 3.13 μg/ml
  cytotoxicity: 3.67 ± 0.51%
[2]; 6.25 μg/ml
  cytotoxicity: 5.33 ± 0.84%
[2]; 12.5 μg/ml
  cytotoxicity: 11.3 ± 1.83%
[2]; 25.0 μg/ml
  cytotoxicity: 25.7 ± 0.51%
[3]; 1.56 μg/ml, read-out: % inhibition of cell proliferation
  inhibition at 1.56 µg/mL: 8%
[3]; 3.13 μg/ml, read-out: % inhibition of cell proliferation
  inhibition at 3.13 µg/mL: 10%
[3]; 6.25 μg/ml, read-out: % inhibition of cell proliferation
  inhibition at 6.25 µg/mL: 10%
[3]; 12.5 μg/ml, read-out: % inhibition of cell proliferation
  inhibition at 12.5 µg/mL: 12%
[3]; 25.0 μg/ml
  inhibition at 25 µg/mL: 12%
